# From patent publication US20070225284A1, “Inhibitors of soluble adenylate cyclase” (priority 2006, published 2007)
# Tests used:
# [1] = target: soluble, sperm-specific adenylate cyclase (sAC) (Homo sapiens, UniProt Q96PN6); assay: sAC-Assay (HTRF cAMP detection); assay type: biochemical; details: read-out: IC50 (inhibition of the soluble adenylate cyclase)
# From the text: In a suitable buffer system, the soluble, sperm-specific adenylate cyclase catalyzes the reaction of adenosine triphosphate (ATP) to cyclic adenosine monophosphate (cAMP) and pyrophosphate. Free cAMP that is generated in this way is then used in a competitive detection process, in which the binding of a europium kryptate (Eu[K])-labeled anti-cAMP antibody (anti cAMP-Eu[K]-AK) to a cAMP-molecule-labeled, modified allophycocyanine-1 molecule (cAMP-XL665) is prevented. In the absence of exogenic cAMP, after excitation at 335 nm, it results in a fluorescence resonance energy transfer (FRET) between the anti cAMP-Eu[K]-AK (FRET-donor) and the cAMP-XL665 molecule (FRET-acceptor). This process is quantified at different times (time-resolved) based on the emission of FRET-acceptor XL665 (665 nm and 620 nm). A signal drop (measured as a wave ratio; calculation formula: [(E665 nm/E620 nm)×10000]) can be attributed to the presence of cAMP and thus to the activity of sAC.
# First, 1.5 μl of the test substance (in 30% DMSO), only 30% DMSO in the solvent controls, is introduced per recess in a 384-hole test plate (polystyrene; 384, NV). […]
# After an additional incubation of 90 minutes at room temperature, the HTRF result is measured either on the Packard Discovery or with the RubiStar HTRF measuring device (Delay: 50 μs; Integration time: 400 μs).
# [2] = statement on known sAC inhibitors; cited from earlier work
# Sequence of soluble, sperm-specific adenylate cyclase (sAC) (Q96PN6 whole entry): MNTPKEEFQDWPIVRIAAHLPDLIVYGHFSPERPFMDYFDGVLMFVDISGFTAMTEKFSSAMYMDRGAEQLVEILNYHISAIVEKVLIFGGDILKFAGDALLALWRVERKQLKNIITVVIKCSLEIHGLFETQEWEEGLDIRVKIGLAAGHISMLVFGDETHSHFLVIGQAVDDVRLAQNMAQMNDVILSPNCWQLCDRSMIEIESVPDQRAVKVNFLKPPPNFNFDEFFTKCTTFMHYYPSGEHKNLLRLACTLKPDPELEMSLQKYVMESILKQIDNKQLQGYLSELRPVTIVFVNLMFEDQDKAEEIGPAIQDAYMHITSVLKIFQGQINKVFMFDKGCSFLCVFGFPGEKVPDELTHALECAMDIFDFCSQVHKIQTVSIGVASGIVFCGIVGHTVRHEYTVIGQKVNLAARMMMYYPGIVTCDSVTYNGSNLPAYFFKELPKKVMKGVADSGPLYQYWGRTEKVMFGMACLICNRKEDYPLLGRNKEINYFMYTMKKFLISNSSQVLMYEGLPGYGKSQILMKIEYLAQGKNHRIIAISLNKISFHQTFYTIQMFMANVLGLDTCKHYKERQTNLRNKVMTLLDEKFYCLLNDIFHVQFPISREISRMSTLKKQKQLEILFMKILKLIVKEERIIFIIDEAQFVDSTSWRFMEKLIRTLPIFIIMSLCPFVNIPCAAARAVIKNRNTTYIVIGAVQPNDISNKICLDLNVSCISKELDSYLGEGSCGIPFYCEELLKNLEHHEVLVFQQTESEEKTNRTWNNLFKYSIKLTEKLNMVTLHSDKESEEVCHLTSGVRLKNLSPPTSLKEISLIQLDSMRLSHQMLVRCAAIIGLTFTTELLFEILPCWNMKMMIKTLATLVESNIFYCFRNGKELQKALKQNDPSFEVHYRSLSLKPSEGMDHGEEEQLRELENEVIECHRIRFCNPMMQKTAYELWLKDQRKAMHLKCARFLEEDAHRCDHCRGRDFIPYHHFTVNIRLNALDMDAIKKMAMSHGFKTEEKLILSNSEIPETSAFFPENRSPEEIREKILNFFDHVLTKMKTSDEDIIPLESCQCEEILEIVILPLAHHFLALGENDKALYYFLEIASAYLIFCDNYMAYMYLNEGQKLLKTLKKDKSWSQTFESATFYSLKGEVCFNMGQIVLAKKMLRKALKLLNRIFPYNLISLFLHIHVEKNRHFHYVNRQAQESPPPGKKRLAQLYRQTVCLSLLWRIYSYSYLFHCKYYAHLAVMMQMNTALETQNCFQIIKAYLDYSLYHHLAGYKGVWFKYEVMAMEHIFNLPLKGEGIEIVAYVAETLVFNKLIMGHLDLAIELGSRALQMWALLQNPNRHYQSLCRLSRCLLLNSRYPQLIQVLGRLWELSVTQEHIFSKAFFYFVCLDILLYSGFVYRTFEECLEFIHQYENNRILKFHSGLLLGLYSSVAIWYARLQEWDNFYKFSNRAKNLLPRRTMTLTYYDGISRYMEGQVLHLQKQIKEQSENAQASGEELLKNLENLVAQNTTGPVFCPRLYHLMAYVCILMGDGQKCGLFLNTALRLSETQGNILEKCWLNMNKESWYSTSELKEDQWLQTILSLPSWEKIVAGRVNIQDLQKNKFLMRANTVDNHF
IC50 [1] [nM],Compound,toxicity [2]
2600,CN(c1ccc2[nH]c(C(=O)NCCN3CCOCC3)c(-c3ccccc3)c2c1)S(=O)(=O)c1ccc(C(C)(C)C)cc1,–
1300,"CC(O)CNC(=O)c1[nH]c2ccc(N(C)S(=O)(=O)c3ccc(C(C)(C)C)cc3)cc2c1-c1ccccc1 (racemic) [Example 4, (±)-5-[(4-tert-Butyl-phenylsulfonyl)-methyl-amino]-3-phenyl-1H-indole-2-carboxylic acid-(2-hydroxy-propyl)-amide]",–
–,Cc1cc2c(C(C)C)c(O)c(O)c(C=O)c2c(O)c1-c1c(C)cc2c(C(C)C)c(O)c(O)c(C=O)c2c1O [gossypol],inherently toxic
